Tests used:
[1] = test system: rats with visceral hypersensitivity induced by the butyrate; assay: CRD test, role of CB2 and MOR receptors in NCFM-induced analgesia (antagonists) in butyrate-treated rats; type: in vivo, rat; conditions: for effect on NCFM-induced analgesia: butyrate-treated rats receiving NCFM 10^9 CFU/day 15 days, antagonist given peritoneally 30 min before CRD (AM630, naloxone methiodide 2 mg/kg); for effect on pain perception in control rats: control rats with butyrate-induced visceral hypersensitivity, no NCFM, AM630 or naloxone methiodide 2 mg/kg, 30 min before CRD
Description: (§1) Male Sprague-Dawley rats (Charles River, l'Arbresle, France) weighing 175-200 g were used in this study. Rats were maintained in laboratory conditions for 1 week before experiment. The animals were housed 5 per cage with food and water available ad libitum. All studies were performed in accordance with the proposal of the committee for Research and Ethical Issues of the International Association for the Study of Pain (Zimmermann M, Pain. 1983; 16:109-110). Great care was taken, particularly with regard to housing conditions, to avoid or minimize discomfort to the animals.
For each enema, a catheter (2-mm Fogarty catheter) was placed in the colon at 7 cm from the anus, and the animals received 1 ml of 200 mM of sodium butyrate at neutral pH (pH6.9) twice daily for 3 days. Healthy animals received saline.
Nociception in the animals was assessed by measuring the intracolonic pressure required to induce a behavioral response during colorectal distension (CRD) due to the inflation of a balloon introduced in the colon. This response was characterized by an elevation of the hind part of the animal body and clearly visible abdominal contraction corresponding to the severe contractions (Al Chaer, gastro 2000; Tarrerias, pain 2002; Bourdu et al., 2005). Briefly, rats were anesthetized with volatile anaesthesia (2% isoflurane), the balloon (prepared as previously described in Bourdu & al, 2005) was inserted intrarectally in a minimally invasive manner to 7 cm from the anus, and the catheter was taped to the base of the tail. After 5 minutes, rats were placed in the middle of a 40×40-cm Plexiglas box and the catheter was connected to an electronic barostat apparatus (Synectics Visceral Stimulator; Medtronic, Boulogne-Billancourt, France).
Four groups of animals treated with butyrate were used (n=10/group). Two groups were treated once a day during fifteen days by gastric gavage, 10^9 CFU of NCFM strain and the two other groups of butyrate-treated animals received CarboxyMethyl Cellulose (CMC) by the same route and during the same time. NCFM strain was resuspended in 0.5% CMC (CarboxyMethyl Cellulose, Sigma). Butyrate instillations began 7 days after the first gavage for three days. Colonic hypersensitivity was determined 14 days after the after beginning of oral treatment thus 7 days after colonic instillations. […]
(§2) All experiments were performed in a blind manner by the same experimenter using the block method. Results are expressed as mean±SEM of raw data. Results of CRD testing were analysed using one-way analysis of variance (ANOVA) followed of a Bonferroni post-hoc test to compare several treatments. […]

[2] = test system: rats with colonic hypersensitivity induced by butyrate enemas; conditions: rat with visceral hypersensitivity induced by butyrate; known from Bourdu et al; cited from earlier work
[3] = test system: rats with colonic hypersensitivity induced by butyrate; assay: CRD test, probiotic co-administered with suboptimal morphine in rats with butyrate-induced colonic hypersensitivity; type: in vivo, rat; conditions: butyrate-treated rats
Description: as §1, with “Pain” for “Pain.”, “animals. […]” for “animals.”
Nociception in the animals was assessed by measuring the intracolonic pressure required to induce a behavioral response during colorectal distension (CRD) due to the inflation of a balloon introduced in the colon. […]
Four groups of animals treated with butyrate were used (n=10/group). […] Colonic hypersensitivity was determined 14 days after the after beginning of oral treatment thus 7 days after colonic instillations. […]
as §2

SMILES	effect on NCFM-induced analgesia [1]	effect on pain perception in control rats [1]	effect on colonic hypersensitivity in CRD test [2]	pain threshold ([3]; morphine 0.1 mg/kg subcutaneously alone, 30 min before CRD, mean±SEM)	difference on pain threshold vs rats not receiving morphine ([3]; suboptimal dosage of morphine 0.1 mg/kg)
COc1ccc(C(=O)c2c(C)n(CCN3CCOCC3)c3cc(I)ccc23)cc1 [AM630]	significantly inhibited	no effect	–	–	–
C=CC[N+]1(C)CC[C@]23c4c5ccc(O)c4O[C@H]2C(=O)CC[C@@]3(O)[C@H]1C5 (stereo partly shown) [NLX, naloxone methiodide]	not	no effect	–	–	–
CN1CC[C@]23c4c5ccc(O)c4O[C@H]2[C@@H](O)C=C[C@H]3[C@H]1C5 [morphine]	–	–	dose-dependent decrease	41.5±2.4	No difference

Source: patent US20090311227A1, “Composition” (Danisco A/S, priority 2006, published 2009)
